From EPA's ToxValDB 9.5 (doi:10.2903/j.efsa.2007.111r)
In brackets after ≈: the same amount, converted by molar mass.

How the values were obtained:
Daphnia magna = conditions: chronic/long-term; duration: 21 days; reproduction
Apis mellifera = conditions: acute; duration: 48 hours; dermal; mortality
Bibionidae = conditions: chronic/long-term; duration: 25 days; development
Colinus virginianus = conditions: acute; oral; mortality
Tagia sp. = conditions: acute; duration: 14 days; mortality

SMILES: CCCN(CCC)C(=O)SCc1ccccc1 [Prosulfocarb]
- NOEC (Daphnia magna): 0.045 mg/L
- LD50 (Apis mellifera): > 80 µg/piece
- NOEC (Bibionidae): 1.25 mg/L
- LD50 (Colinus virginianus): > 2250 mg/kg-day
- NOEL (Anas platyrhynchos; reproductive): 131 mg/kg-day
- LD50 (Anas platyrhynchos; short-term, oral, feed, mortality): > 1510 mg/kg-day
- LC50 (Tagia sp.): 144 mg/kg
- LD50 (Rattus norvegicus; acute, oral, mortality): 1820 mg/kg-day
- NOAEL (Rattus norvegicus; chronic, duration: 2 years, oral, body weight): 0.5 mg/kg-day
- NOAEL (Rattus norvegicus; reproduction developmental, body weight): 0.5 mg/kg-day
- NOAEL (Rattus norvegicus; reproduction developmental, clinical signs): 10 mg/kg-day
- NOAEL (Rattus norvegicus; reproduction developmental, reproduction): > 50 mg/kg-day
- NOAEL (Rattus norvegicus; subchronic, duration: 90 days, oral, body weight): 1 mg/kg-day
- LC50 (Oncorhynchus mykiss; acute, duration: 96 hours, mortality): 0.84 µg/mL (≈ 3.34 µM)
- NOEC (Oncorhynchus mykiss; chronic/long-term, duration: 21 days, other): 0.31 mg/L
